In patent US4503055A, “Derivatives of [4-(piperazin-1-yl-phenyloxymethyl)-1,3-dioxolan-2-ylmethyl]-1H-imidazol es and 1H-1,2,4-triazoles” (Janssen Pharmaceutica, N.V., priority 1981, dated 1985):

Assays:
Candida albicans [1] = assay: Activity against crop candidosis in turkeys; type: in vivo; details: medicated feed for 13 consecutive days from day of infection, crops of 50% of animals completely negative for Candida albicans
Protocol: Turkeys of 14 days old are infected in the crop with 4.10^6 Candida albicans cells, grown on Sabouraud broth for 48 hours at 37° C. and diluted with saline. The volume of the inoculum is 1 ml. The drugs under investigation are premixed in 500 mg of lacton and thereafter admixed in 1000 g of meal without any additives. The concentration of the drug under investigation in the meal is expressed in mg/kg. The animals are given the medicated feed for 13 consecutive days starting on the day of infection. At the end of the experiment all animals are sacrificed. At autopsy the crops are removed, emptied and grinded in an ultra-turrax mixer in 15 ml of sterile saline. Colony counting is done on Sabouraud agar and the results given in the table represents the ED50, i.e., the dose of the drug whereby the crops of 50% of the animals are completely negative for Candida albicans.

Candida albicans [2] = assay: Activity against vaginal candidosis in rats; type: in vivo, Female Wistar rats; details: 336 h, oral, once a day for two days from day of infection, active at the 14th day after infection, read-out: Vaginal candidosis in rats: lowest effective dose in mg/kg orally
Protocol: Female Wistar rats of ±100 g body weight are used. They are ovariectomized and hysterectomized and after three weeks of recovery, 100 μg of oestradiol undecylate in sesame oil is given subcutaneously once a week for 3 consecutive weeks. The thus induced pseudooestrus is controlled by microscopic examination of vaginal smears. Food and water are left available ad libitum. The rats are infected intravaginally with 8.10^5 cells of Candida albicans, grown on Sabouraud broth for 48 hours at 37° C. and diluted with saline. The date of infection varies from day +25 to day +32 after surgical intervention, depending on the appearance of signs of induced pseudooestrus. The drugs under investigation are administered orally once a day for two days starting from the day of infection. For each experiment there are placebo treated controls. The results are assessed by taking vaginal smears with sterile swabs on several days after the infection. The swabs are put into Sabouraud broth in petri-dishes and incubated for 48 hours at 37° C. If no growth of Candida albicans occurs, i.e., when the animals are negative at the end of the experiment, this is due to drug administration because it never happens in placebo treated controls. The table below gives the lowest oral dose of the drug under investigation which is found active at the 14th day after infection.

Row | Compound | Crop candidosis in turkeys: ED50 in mg/kg feed (Candida albicans [1]) | minimal effective dose (Candida albicans [2])
1 | Cc1ccc(NC(=O)CN2CCN(c3ccc(OC[C@H]4CO[C@](Cn5ccnc5)(c5ccc(Cl)cc5Cl)O4)cc3)CC2)cc1 (relative stereo) | 16 mg/kg feed | 
2 | Clc1ccc(CN2CCN(c3ccc(OC[C@H]4CO[C@](Cn5ccnc5)(c5ccc(Cl)cc5Cl)O4)cc3)CC2)cc1 (relative stereo) | < 31 mg/kg feed | 
3 | CCOC(=O)COC(=O)N1CCN(c2ccc(OC[C@H]3CO[C@](Cn4ccnc4)(c4ccc(Cl)cc4Cl)O3)cc2)CC1 (relative stereo) | 31 mg/kg feed | 2.5 mg/kg
4 | O=C(CN1CCN(c2ccc(OC[C@H]3CO[C@](Cn4ccnc4)(c4ccc(Cl)cc4Cl)O3)cc2)CC1)Nc1c(Cl)cccc1Cl (relative stereo) | 31 mg/kg feed | 2.5 mg/kg
5 | Cc1ccc(S(=O)(=O)N2CCN(c3ccc(OC[C@H]4CO[C@](Cn5cncn5)(c5ccc(Cl)cc5Cl)O4)cc3)CC2)cc1 (relative stereo) | < 31 mg/kg feed | 
6 | O=C(C=Cc1ccc(Cl)cc1)N1CCN(c2ccc(OC[C@H]3CO[C@](Cn4cncn4)(c4ccc(Cl)cc4Cl)O3)cc2)CC1 | 16 mg/kg feed | 
7 | Cc1ccccc1NC(=O)CN1CCN(c2ccc(OC[C@H]3CO[C@](Cn4ccnc4)(c4ccc(Cl)cc4Cl)O3)cc2)CC1 (relative stereo) | 16 mg/kg feed | 2.5 mg/kg
